# In a melting point compilation (Tetko et al.; mined from patent text by program, amines drawn as free bases though some values may be those of a salt):
row,SMILES,melting point
1,CSc1cc2nnc(C)n2c(C)n1,201 to 203 °C
2,CCc1ccc2c(c1)CC(=O)N2,136 to 137 °C
3,c1ccc2c(=Nc3ccncc3)cc3oc4cc(N5CCOCC5)ccc4nc-3c2c1,> 300 °C
4,O=C1CCCc2c1ccc(OCc1ccccc1)c2CBr,103 to 104 °C
5,CS(=O)c1ccc(-c2nc(S)[nH]c2-c2ccc(S(C)=O)cc2)cc1 (stereo not drawn),261 to 262 °C
6,CC(C)Cn1c(=O)n(C)c(=O)c2c(SCCN(C)C)n(Cc3cccc4ccccc34)cc21,140 to 144 °C
7,CCc1noc(C)c1-c1[nH]c2ccccc2c1C(O)CCN(C)C (stereo not drawn),166 to 169 °C
8,CCOCc1nc2c(N)nc(C)c(C)c2n1CCCON=C(C)C,123 to 125 °C
9,CC(=O)OC1O[C@H](CN=[N+]=[N-])[C@H](OC(C)=O)[C@H](OC(C)=O)[C@H]1OC(C)=O (stereo partly drawn),89.9 to 90.3 °C
10,CCN(CC)c1ccc2nc3c4ccccc4c(=Nc4nc5ccc(OC)cc5s4)cc-3oc2c1,197 to 198 °C
11,CS(=O)(=O)c1ccc(-c2cnn(CC3CC3)c(=O)c2-c2ccc(F)cc2)cc1,118 to 121 °C
12,OC(CCc1c[nH]cn1)(c1ccccc1)c1ccccc1,189 to 191 °C
13,O=C1Nc2ccc(Cl)cc2C2(c3ccccc3)OCCCN12 (stereo not drawn),202 to 204 °C
14,Oc1ccc(C(F)(F)C(F)(F)C(F)(F)/C=C/C(F)(F)C(F)(F)C(F)(F)c2ccc(O)cc2)cc1,134 to 138 °C
15,CC(C)CN(CC(O)C(Cc1ccccc1)NC(=O)C(CC(N)=O)NC(=O)NCc1ccccc1)C(=O)NC(C)(C)C (stereo not drawn),164 to 166 °C
16,CC(C)(COc1ccc([N+](=O)[O-])cc1)c1ccccc1,79 to 80 °C
17,CC(=O)c1oc2ccc(Br)cc2c1NC(=O)c1cnoc1C,206 to 208 °C
18,Clc1ccc2c(c1)ncc1ncsc12,199 to 200 °C
19,CC(C)=CCC1(C(F)(F)F)C(=O)NC(=O)NC1=O,150 to 153 °C
20,c1ccc2c(c1)c1ccccc1c1cc(-c3ccc4c5ccccc5c5ccccc5c4c3)ccc21,356 °C
21,CC1=C(C(=O)O)C(c2cccc([N+](=O)[O-])c2)NC(=N[N+](=O)[O-])N1 (stereo not drawn),236 to 238 °C

# Second part, the compound after the results:
row,melting point,SMILES
1,112 °C,CCC(=O)c1cc(-c2cccc(O)c2)cs1
2,190 to 191 °C,COc1ccc(N2N=C3c4cc(C)sc4S(=O)(=O)CCC3CC2=O)cc1 (stereo not drawn)
3,162 °C,CC(=O)c1cccc2ccc(CS(=O)(=O)N3CCOCC3)cc12
4,163 to 164 °C,CCOC(=O)[C@H](CCc1ccccc1)N[C@@H](C)C(=O)N1N=C(c2ccc(SC)cc2)S[C@H]1C(=O)O
5,186 to 192 °C,CC(OC(=O)c1ccccc1)P(=O)(O)OC(CCCCN)C(=O)N1CCCC1C(=O)O (stereo not drawn)
6,162 to 164 °C,CC(C=O)Cc1cc(C(C)(C)C)c(O)c(C(C)(C)C)c1 (stereo not drawn)
7,146 to 148 °C,O=C(Nc1ccc(C2=CCN(C(=O)OCc3ccccc3)CC2)cc1)OCc1ccccc1
8,84 to 95 °C,COc1cc2c(cc1Nc1ncc(Cl)c(Nc3ccccc3S(=O)(=O)N(C)C)n1)CCN(C(=O)CN1CCOCC1)CC2
9,119 to 120 °C,Cc1ccc(C(=O)c2cc(CN(C)C)c(O)c(C(C)(C)C)c2)s1
10,157 to 158 °C,CCc1noc(=O)c2ccc(NC(=O)C(=O)CC(C)(C)c3cc(F)ccc3OC)cc12
11,208 to 209 °C,CCNc1cccnc1N1CCN(C(=O)c2ccc(C(=O)O)cc2)CC1
12,74 to 77 °C,CCC(C)(C)c1cc(-c2cccc(CC3SC(N4CCOCC4)=NC3=O)c2)ccc1O (stereo not drawn)
13,154 to 156 °C,CC(C)(C)OC(=O)N1CCC(C(=O)c2cccs2)CC1
14,156 to 158 °C,CCCN1CC(OCC2CC2)(C(F)(F)F)c2cc(Cl)ccc2NC1=O (stereo not drawn)
15,119 to 121 °C,N#Cc1c(N2CCCCC2)cccc1[N+](=O)[O-]
16,138 to 140 °C,O=C(O)C(O)(CC1CCCCC1)c1ccccc1 (stereo not drawn)
17,59 to 61 °C,CC(C)(C)OC(=O)N1CCCC(c2ccc3c(c2)C2(CO3)C(=O)N(Cc3ccc(C(F)(F)F)o3)c3ccccc32)C1 (stereo not drawn)
